The numbers were not newly measured in US10166183B2, “Pharmaceutical formulations” (AUSPEX PHARMACEUTICALS, INC., priority 2014, dated 2019), which cites them from elsewhere.

For this data set the following is noted: in human plasma; metabolites of orally administered tetrabenazine.

Turning to `COc1cc2c(cc1OC)[C@H]1C[C@H](O)[C@H](CC(C)C)CN1CC2` [β-HTBZ, beta-dihydrotetrabenazine], the half-lives is 5 h.

As for alpha-dihydrotetrabenazine [α-HTBZ], the half-lives is 7 h.
